Laboratory results from patent US9138465B2, “Pharmaceutical composition for treating lysosomal storage disease” (OSAKA UNIVERSITY, priority 2011, dated 2015).

Assays:
Format in all cases: cell-based
[1] = biological target: T1, mannose 6-phosphate receptor (Homo sapiens, UniProt P11717); test: Competitive inhibition test for mannose 6-phosphate; conditions: ML-II cell, FIG. 4
T1 construct: a mannose 6-phosphate receptor on the cell surface; endogenous in cells; host or cells: ML-II cell

normal skin fibroblast = test: Enzyme activities in culture supernatants of normal cell + various reagents; conditions: for GALC enzyme activity in culture supernatant / total β-Hex enzyme activity in culture supernatant / α-Fuc enzyme activity in culture supernatant / α-Gal enzyme activity in culture supernatant / α-Gluc enzyme activity in culture supernatant / α-Iduro enzyme activity in culture supernatant / α-Man enzyme activity in culture supernatant / β-Gal enzyme activity in culture supernatant / β-Gluc enzyme activity in culture supernatant / β-Glucuro enzyme activity in culture supernatant / β-Hex A enzyme activity in culture supernatant: NH4Cl 20 mM, CQ 20 uM, Bafilo 20 nM; for excretion of group of lysosomal enzymes compared with no reagent added: Tables 1 and 2
Procedure: In a culture dish with a diameter of 10 cm, a normal skin fibroblast was cultured in a DMEM medium containing 10% FBS (fetal bovine serum) and a recommended amount of an antibiotic and/or an antibacterial agent [Gibco (registered trade name) Antibiotic-Antimycotic, Life Technologies] (hereinafter, referred to as “a standard culture medium”) until the cell became confluent. To the cultured normal skin fibroblast, ammonium chloride was added in such an amount that the concentration of ammonium chloride became 20 mM in the culture medium. Then, the cell was cultured. Seven days after, a culture supernatant was collected, and filtered with a 0.2 μm sterilizing filter to remove large debris and living cells. After the filtration, the activities of lysosomal enzymes contained in the supernatant were measured by a method as described later.
To confirm that the lysosomal enzyme group thus obtained contained lysosomal enzymes, the culture supernatant obtained after addition of ammonium chloride and culture was subjected to measurement of the activities of lysosomal enzymes. As controls, a culture supernatant of a normal skin fibroblast that was cultured without addition of ammonium chloride, and a culture supernatant of an ML-II patient-derived skin fibroblast (hereinafter, referred to as “an ML-II cell”) that was cultured without addition of ammonium chloride were used to measure the activities of lysosomal enzymes in the culture supernatant.
(§1) The activities of lysosomal enzymes were measured by a standard method using an artificial 4-methylumbelliferyl substrate. Briefly, a sample was incubated with the artificial substrate at 37° C. for 1 hour in an acidic phosphate or citrate buffer, and fluorescence was measured on a microplate reader at an excitation wavelength of 365 nm and an emission wavelength of 450 nm. For galactocerebrosidase, 6-hexadecanoylamino-4-methylumbelliferyl β-D-galactopyranoside (Slater and Frith Ltd.) was used as a substrate, and fluorescence was measured at an excitation wavelength of 385 nm and an emission wavelength of 450 nm. The enzyme activities were calculated as nmol/h/μL.
In a culture dish with a diameter of 10 cm, a normal skin fibroblast was cultured in a standard culture medium until the cell became confluent. […] Then, the cell was cultured. Five days after and 7 days after, a culture supernatant was collected, and filtered with a 0.2 μm sterilizing filter to remove large debris and living cells. After the filtration, the activities of lysosomal enzymes contained in the supernatant were measured by the same method as described in Example 1. As a control, a culture supernatant of a normal skin fibroblast that was cultured in a standard culture medium with no addition of any reagents was used to measure the activities of lysosomal enzymes in the culture supernatant.
In Tables 1 and 2, β-Gal means β-galactosidase, total β-Hex means total β-hexosaminidase, β-Hex A means β-hexosaminidase A, β-Gluc means β-glucosidase, α-Man means α-mannosidase, α-Fuc means α-fucosidase, α-Gluc means α-glucosidase, α-Gal means α-galactosidase, β-Glucuro means β-glucuronidase, α-L-Iduro means α-L-iduronidase, and GALC means galactocerebrosidase. SCM means a standard culture medium with no addition of any reagents. […] Bafilo means bafilomycin A1. The enzyme activity is expressed as nmol/h/μL.

COS-1 cell = test: Enzyme activities in culture supernatant of COS-1 cell + NH4Cl
Procedure: as §1
In a culture dish with a diameter of 10 cm, a COS-1 cell was cultured in a standard culture medium until the cell became confluent. To the cultured COS-1 cell, ammonium chloride was added in such an amount that the concentration became 20 mM in the culture medium. Then, the cell was cultured. Three days after, a culture supernatant was collected, and filtered with a 0.2 μm sterilizing filter to remove large debris and living cells. After the filtration, the activities of lysosomal enzymes contained in the supernatant were measured by the same method as described in Example 1. As a control, a culture supernatant of a COS-1 cell that was cultured in a standard culture medium with no addition of ammonium chloride was used to measure the activities of lysosomal enzymes in the culture supernatant.
In Table 3, β-Gal means β-galactosidase, total β-Hex means total β-hexosaminidase, β-Hex A means β-hexosaminidase A, β-Gluc means β-glucosidase, α-Man means α-mannosidase, α-Fuc means α-fucosidase, α-Gluc means α-glucosidase, α-Gal means α-galactosidase, β-Glucuro means β-glucuronidase, α-L-Iduro means α-L-iduronidase, and GALC means galactocerebrosidase. NH4Cl(−) means a culture supernatant in the case of no addition of ammonium chloride. NH4Cl(+) means a culture supernatant in the case of addition of ammonium chloride. The enzyme activity is expressed as nmol/h/μL.

T1 sequence (P11717 41-2491): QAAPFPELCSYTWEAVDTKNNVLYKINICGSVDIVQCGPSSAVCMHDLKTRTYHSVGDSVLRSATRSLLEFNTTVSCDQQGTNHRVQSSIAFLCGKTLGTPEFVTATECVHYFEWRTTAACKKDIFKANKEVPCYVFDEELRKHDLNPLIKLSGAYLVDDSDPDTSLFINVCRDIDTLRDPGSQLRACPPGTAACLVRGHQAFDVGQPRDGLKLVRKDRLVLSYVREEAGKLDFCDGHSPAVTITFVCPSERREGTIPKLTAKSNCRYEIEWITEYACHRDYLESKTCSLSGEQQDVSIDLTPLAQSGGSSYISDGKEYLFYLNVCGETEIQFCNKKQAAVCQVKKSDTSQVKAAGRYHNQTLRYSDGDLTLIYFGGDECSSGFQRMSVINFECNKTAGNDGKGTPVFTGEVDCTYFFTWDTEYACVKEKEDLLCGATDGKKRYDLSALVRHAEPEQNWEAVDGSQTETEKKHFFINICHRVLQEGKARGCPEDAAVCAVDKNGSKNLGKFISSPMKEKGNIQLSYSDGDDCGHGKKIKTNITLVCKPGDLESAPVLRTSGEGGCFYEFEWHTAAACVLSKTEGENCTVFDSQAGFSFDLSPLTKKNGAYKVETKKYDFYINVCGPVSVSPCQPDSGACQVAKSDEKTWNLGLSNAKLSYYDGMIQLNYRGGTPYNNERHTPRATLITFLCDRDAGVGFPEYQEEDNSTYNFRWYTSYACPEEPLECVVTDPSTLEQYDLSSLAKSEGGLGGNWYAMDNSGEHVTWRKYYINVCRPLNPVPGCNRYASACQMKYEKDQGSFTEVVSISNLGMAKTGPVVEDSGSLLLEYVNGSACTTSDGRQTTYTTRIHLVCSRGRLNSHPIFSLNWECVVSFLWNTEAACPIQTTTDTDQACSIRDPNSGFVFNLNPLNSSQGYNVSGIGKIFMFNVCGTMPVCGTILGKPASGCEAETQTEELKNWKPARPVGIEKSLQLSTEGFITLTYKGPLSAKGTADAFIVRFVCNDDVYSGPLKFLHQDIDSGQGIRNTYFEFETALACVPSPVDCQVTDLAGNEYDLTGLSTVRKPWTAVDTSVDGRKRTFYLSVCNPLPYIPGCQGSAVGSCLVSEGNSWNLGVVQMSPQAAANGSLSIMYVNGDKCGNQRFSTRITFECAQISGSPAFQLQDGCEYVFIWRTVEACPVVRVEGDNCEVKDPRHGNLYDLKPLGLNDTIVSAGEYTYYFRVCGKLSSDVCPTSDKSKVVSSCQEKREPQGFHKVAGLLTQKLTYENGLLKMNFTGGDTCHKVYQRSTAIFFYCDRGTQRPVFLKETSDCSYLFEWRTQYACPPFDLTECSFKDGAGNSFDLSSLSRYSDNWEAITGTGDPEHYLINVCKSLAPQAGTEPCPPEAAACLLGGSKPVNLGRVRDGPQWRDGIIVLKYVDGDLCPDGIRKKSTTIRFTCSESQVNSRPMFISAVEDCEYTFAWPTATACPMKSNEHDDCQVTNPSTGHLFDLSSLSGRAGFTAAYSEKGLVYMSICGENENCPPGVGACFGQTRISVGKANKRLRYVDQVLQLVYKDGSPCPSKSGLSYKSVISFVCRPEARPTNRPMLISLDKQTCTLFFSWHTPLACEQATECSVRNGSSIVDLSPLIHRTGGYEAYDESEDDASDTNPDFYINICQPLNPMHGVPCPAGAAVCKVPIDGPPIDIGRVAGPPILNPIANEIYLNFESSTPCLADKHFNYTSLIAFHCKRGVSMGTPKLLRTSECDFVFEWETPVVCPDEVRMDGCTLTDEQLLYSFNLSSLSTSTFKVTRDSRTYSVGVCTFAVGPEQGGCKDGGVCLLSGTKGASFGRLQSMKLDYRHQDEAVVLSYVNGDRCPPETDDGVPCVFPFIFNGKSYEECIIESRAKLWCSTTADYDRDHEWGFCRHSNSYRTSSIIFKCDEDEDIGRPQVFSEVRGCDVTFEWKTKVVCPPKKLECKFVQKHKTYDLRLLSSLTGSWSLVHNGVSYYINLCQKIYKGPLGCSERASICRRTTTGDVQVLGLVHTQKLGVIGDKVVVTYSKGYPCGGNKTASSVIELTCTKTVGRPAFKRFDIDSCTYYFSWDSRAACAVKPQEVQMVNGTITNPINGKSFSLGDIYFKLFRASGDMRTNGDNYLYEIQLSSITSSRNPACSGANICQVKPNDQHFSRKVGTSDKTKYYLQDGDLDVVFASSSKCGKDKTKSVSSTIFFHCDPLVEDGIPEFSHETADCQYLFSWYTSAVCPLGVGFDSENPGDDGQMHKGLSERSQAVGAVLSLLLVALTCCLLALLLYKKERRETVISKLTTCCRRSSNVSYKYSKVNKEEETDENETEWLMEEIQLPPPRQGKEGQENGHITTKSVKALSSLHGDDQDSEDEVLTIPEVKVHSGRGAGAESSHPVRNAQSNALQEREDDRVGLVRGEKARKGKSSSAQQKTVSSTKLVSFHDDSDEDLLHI

Structure (SMILES)	GALC enzyme activity in culture supernatant (normal skin fibroblast; Day 5, normal cell) [nmol/h/µL]	total β-Hex enzyme activity in culture supernatant (normal skin fibroblast; Day 5, normal cell) [nmol/h/µL]	α-Fuc enzyme activity in culture supernatant (normal skin fibroblast; Day 5, normal cell) [nmol/h/µL]	α-Gal enzyme activity in culture supernatant (normal skin fibroblast; Day 5, normal cell) [nmol/h/µL]	α-Gluc enzyme activity in culture supernatant (normal skin fibroblast; Day 5, normal cell) [nmol/h/µL]	α-Iduro enzyme activity in culture supernatant (normal skin fibroblast; Day 5, normal cell) [nmol/h/µL]	α-Man enzyme activity in culture supernatant (normal skin fibroblast; Day 5, normal cell) [nmol/h/µL]	β-Gal enzyme activity in culture supernatant (normal skin fibroblast; Day 5, normal cell) [nmol/h/µL]	β-Gluc enzyme activity in culture supernatant (normal skin fibroblast; Day 5, normal cell) [nmol/h/µL]	β-Glucuro enzyme activity in culture supernatant (normal skin fibroblast; Day 5, normal cell) [nmol/h/µL]	β-Hex A enzyme activity in culture supernatant (normal skin fibroblast; Day 5, normal cell) [nmol/h/µL]	GALC enzyme activity in culture supernatant (normal skin fibroblast; Day 7, normal cell) [nmol/h/µL]	total β-Hex enzyme activity in culture supernatant (normal skin fibroblast; Day 7, normal cell) [nmol/h/µL]	α-Fuc enzyme activity in culture supernatant (normal skin fibroblast; Day 7, normal cell) [nmol/h/µL]	α-Gal enzyme activity in culture supernatant (normal skin fibroblast; Day 7, normal cell) [nmol/h/µL]	α-Gluc enzyme activity in culture supernatant (normal skin fibroblast; Day 7, normal cell) [nmol/h/µL]	α-Iduro enzyme activity in culture supernatant (normal skin fibroblast; Day 7, normal cell) [nmol/h/µL]	α-Man enzyme activity in culture supernatant (normal skin fibroblast; Day 7, normal cell) [nmol/h/µL]	β-Gal enzyme activity in culture supernatant (normal skin fibroblast; Day 7, normal cell) [nmol/h/µL]	excretion of group of lysosomal enzymes compared with no reagent added (normal skin fibroblast; normal skin fibroblast)	other results
O=C[C@@H](O)[C@@H](O)[C@H](O)[C@H](O)COP(=O)(O)O [mannose 6-phosphate]	–	–	–	–	–	–	–	–	–	–	–	–	–	–	–	–	–	–	–	–	β-glucosidase in mannose 6-phosphate competitive inhibition test [1]: not to be affected; intracellular uptake of lysosomal enzymes ([1]; mannose 6-phosphate 0, 5 or 10 mM with lysosomal enzyme group sample): concentration-dependently and competitively inhibited
Cl.N [NH4Cl, ammonium chloride]	0.55	736.1	6.68	0	1.92	3.61	137.1	8.20	4.53	3.85	67.0	0.50	1239.2	5.70	0.84	4.51	13.90	200.0	11.65	excreted in larger amounts	β-Gluc enzyme activity in culture supernatant (normal skin fibroblast; Day 7, normal cell): 5.39 nmol/h/µL; β-Glucuro enzyme activity in culture supernatant (normal skin fibroblast; Day 7, normal cell): 12.78 nmol/h/µL; β-Hex A enzyme activity in culture supernatant (normal skin fibroblast; Day 7, normal cell): 157.9 nmol/h/µL; kinds of lysosomal enzymes contained in culture supernatant (normal skin fibroblast; normal skin fibroblast, ammonium chloride 20 mM, seven days, FIG. 1): at least 10 kinds; excretion of group of lysosomal enzymes compared with no addition of ammonium chloride (COS-1 cell; COS-1 cell, Table 3): excreted in larger amounts; GALC enzyme activity in culture supernatant (COS-1 cell; Day 3, COS1, NH4Cl 20 mM): 0.41 nmol/h/µL; total β-Hex enzyme activity in culture supernatant (COS-1 cell; Day 3, COS1, NH4Cl 20 mM): 799.8 nmol/h/µL; α-Fuc enzyme activity in culture supernatant (COS-1 cell; Day 3, COS1, NH4Cl 20 mM): 24.2 nmol/h/µL; α-Gal enzyme activity in culture supernatant (COS-1 cell; Day 3, COS1, NH4Cl 20 mM): 10.60 nmol/h/µL; α-Gluc enzyme activity in culture supernatant (COS-1 cell; Day 3, COS1, NH4Cl 20 mM): 7.96 nmol/h/µL; α-Iduro enzyme activity in culture supernatant (COS-1 cell; Day 3, COS1, NH4Cl 20 mM): 13.60 nmol/h/µL; α-Man enzyme activity in culture supernatant (COS-1 cell; Day 3, COS1, NH4Cl 20 mM): 178.0 nmol/h/µL; β-Gal enzyme activity in culture supernatant (COS-1 cell; Day 3, COS1, NH4Cl 20 mM): 25.26 nmol/h/µL; β-Gluc enzyme activity in culture supernatant (COS-1 cell; Day 3, COS1, NH4Cl 20 mM): 6.64 nmol/h/µL; β-Glucuro enzyme activity in culture supernatant (COS-1 cell; Day 3, COS1, NH4Cl 20 mM): 21.37 nmol/h/µL; β-Hex A enzyme activity in culture supernatant (COS-1 cell; Day 3, COS1, NH4Cl 20 mM): 85.9 nmol/h/µL
CCN(CC)CCCC(C)Nc1ccnc2cc(Cl)ccc12 (centres unmarked) [CQ, chloroquine]	–	–	–	–	–	–	–	–	–	–	–	–	–	–	–	–	–	–	–	excreted in larger amounts	–
CO/C1=C\C(C)=C\[C@@H](C)[C@@H](O)[C@@H](C)C/C(C)=C/C=C/[C@H](OC)[C@@H]([C@@H](C)[C@@H](O)[C@H](C)[C@@]2(O)C[C@@H](O)[C@H](C)[C@@H](C(C)C)O2)OC1=O [Bafilo, bafilomycin A1]	0.64	437.7	3.49	0	1.13	0.57	100.4	4.65	3.97	4.07	18.9	0.69	300.5	3.97	0.91	2.44	0.64	123.9	2.93	excreted in larger amounts	β-Gluc enzyme activity in culture supernatant (normal skin fibroblast; Day 7, normal cell): 8.65 nmol/h/µL; β-Glucuro enzyme activity in culture supernatant (normal skin fibroblast; Day 7, normal cell): 8.03 nmol/h/µL; β-Hex A enzyme activity in culture supernatant (normal skin fibroblast; Day 7, normal cell): 22.5 nmol/h/µL
